Values of other authors as cited in PMC7617459, “Comparative Evaluation and Profiling of Chemical Tools for the Nuclear Hormone Receptor Family 2” (ACS pharmacology & translational science, 2025).

Experiments:
Design in all cases: method as in PMID 33114319
[1] = tested on: fructose-1,6-bisphosphatase 1 (FBP1); details: HepG2 cells; cited from earlier work
HNF4α [2] = details: reporter gene assay; cited from earlier work
HNF4α [3] = details: ITC; cited from earlier work

Structure (SMILES): OC(c1ccc(F)cc1)c1ccc(F)cc1 [compound 5]
- expression of HNF4 target gene FBP1 [1]: diminished expression
- IC50 (HNF4α [2]): 24 µM
- Kd (HNF4α [3]): 1.7 µM
